The text below walks through data of patent publication US10730874B2 (Shire Human Genetic Therapies, Inc., priority 2018, dated 2020).

Sequence of human activated kallikrein enzyme (plasma kallikrein) (P03952 391-638): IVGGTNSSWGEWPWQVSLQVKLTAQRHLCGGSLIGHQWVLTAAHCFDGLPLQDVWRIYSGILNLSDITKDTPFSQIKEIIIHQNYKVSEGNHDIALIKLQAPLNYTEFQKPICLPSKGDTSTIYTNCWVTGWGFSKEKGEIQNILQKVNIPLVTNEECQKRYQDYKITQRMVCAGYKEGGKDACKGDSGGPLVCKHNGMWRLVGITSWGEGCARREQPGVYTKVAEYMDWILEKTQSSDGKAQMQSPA
Sequence of human activated kallikrein enzyme (plasma kallikrein) (P03952 20-390 partner): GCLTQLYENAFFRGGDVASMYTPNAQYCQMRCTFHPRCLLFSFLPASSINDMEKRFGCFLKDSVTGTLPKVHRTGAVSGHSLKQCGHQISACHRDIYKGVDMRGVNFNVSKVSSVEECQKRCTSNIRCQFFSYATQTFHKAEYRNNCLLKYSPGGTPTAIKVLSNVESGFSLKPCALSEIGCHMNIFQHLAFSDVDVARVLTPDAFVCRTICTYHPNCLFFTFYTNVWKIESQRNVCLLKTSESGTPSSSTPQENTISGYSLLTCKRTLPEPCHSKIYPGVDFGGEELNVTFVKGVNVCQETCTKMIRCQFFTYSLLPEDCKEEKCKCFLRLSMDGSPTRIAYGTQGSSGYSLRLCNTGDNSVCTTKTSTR

The assay concerns the target human activated kallikrein enzyme (plasma kallikrein) (Homo sapiens (Human), UniProt P03952). The assay can be described thus: Inhibition of human activated plasma kallikrein, fluorogenic peptide substrate assay, 500 pM enzyme format. Type of assay: biochemical. The following applies: 500 pM activated kallikrein enzyme, 300 uM Pro-Phe-Arg-7-amido-4-methylcoumarin substrate, 30 min preincubation, 10 min at RT; read-out: Primary Dose Response Assay: Average EC50. Summed up: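 Buffer 20 mM Tris pH 7.5, EDTA, NaCl, PEG-400, Triton X-100; 300 uM Pro-Phe-Arg-AMC; enzyme–inhibitor preincubation 30 min RT. Format one: 500 pM kallikrein, 10 min RT reaction; format two: 5 pM kallikrein, 18 h RT reaction. Fluorescence read at 460 nm (380 nm excitation).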
The term EC50 denotes the concentration giving half of the maximal effect. Consider `CCOC(=O)Cc1cc(C2CC2)cn2cc(Cn3cc(C(=O)NCc4ncn5ccc(Br)c(F)c45)cn3)nc12` [Example I-105, ethyl 2-(2-((4-(((7-bromo-8-fluoroimidazo[1,5-a]pyridin-1-yl)methyl)carbamoyl)-1H-pyrazol-1-yl)methyl)-6-cyclopropylimidazo[1,2-a]pyridin-8-yl)acetate], for which the EC50 is less than 1 nM.

As to `O=C(NCc1ncn2ccc(Cl)c(F)c12)c1cn(Cc2cc3cc(C4CC4)cc(C(F)(F)F)n3n2)nn1` [Example I-231, N-((7-chloro-8-fluoroimidazo[1,5-a]pyridin-1-yl)methyl)-1-((5-cyclopropyl-7-(trifluoromethyl)pyrazolo[1,5-a]pyridin-2-yl)methyl)-1H-1,2,3-triazole-4-carboxamide], the EC50 was less than 1 nM.

`O=C(O)Cn1c(Cn2cc(C(=O)NCc3ncn4ccc(Cl)c(F)c34)nn2)cc2cc(C3CC3)ccc21` [Example I-244, 2-(2-((4-(((7-chloro-8-fluoroimidazo[1,5-a]pyridin-1-yl)methyl)carbamoyl)-1H-1,2,3-triazol-1-yl)methyl)-5-cyclopropyl-1H-indol-1-yl)acetic acid]: the EC50 was in the range of 10 to 100 nM.

As to `O=C(NCc1ncn2ccc(Cl)c(F)c12)c1cnn(Cc2cn3cc(C4CC4)cc(Cc4nnco4)c3n2)c1` [Example I-214, 1-((8-((1,3,4-oxadiazol-2-yl)methyl)-6-cyclopropylimidazo[1,2-a]pyridin-2-yl)methyl)-N-((7-chloro-8-fluoroimidazo[1,5-a]pyridin-1-yl)methyl)-1H-pyrazole-4-carboxamide], the EC50 is less than 1 nM.

Consider `COC(=O)C1(Cc2cc(C3CC3)cn3cc(Cn4cc(C(=O)NCc5ncn6ccc(Cl)c(F)c56)nn4)nc23)CCCC1` [Example I-221a, methyl 1-((2-((4-(((7-chloro-8-fluoroimidazo[1,5-a]pyridin-1-yl)methyl)carbamoyl)-1H-1,2,3-triazol-1-yl)methyl)-6-cyclopropylimidazo[1,2-a]pyridin-8-yl)methyl)cyclopentane-1-carboxylate], for which the EC50 was less than 1 nM.

As to `O=C(NCc1ncn2ccc(Cl)cc12)c1cnn(Cc2cn3cc(C4CC4)c(Cl)cc3n2)c1` [Example I-24, 1-((7-chloro-6-cyclopropylimidazo[1,2-a]pyridin-2-yl)methyl)-N-((7-chloroimidazo[1,5-a]pyridin-1-yl)methyl)-1H-pyrazole-4-carboxamide], the EC50 fell in the range of 1 to 10 nM.

As for `O=C(NCc1ncn2ccc(Cl)c(F)c12)c1cn(Cc2cc3ncc(C4CC4)cn3n2)nn1` [Example I-209, N-((7-chloro-8-fluoroimidazo[1,5-a]pyridin-1-yl)methyl)-1-((6-cyclopropylpyrazolo[1,5-a]pyrimidin-2-yl)methyl)-1H-1,2,3-triazole-4-carboxamide], the EC50 was in the range of 1 to 10 nM.

Turning to `O=C(NCc1ncn2ccc(Cl)cc12)c1cnn(Cc2cn3cccc(C4(CO)CC4)c3n2)c1` [Example I-117, N-((7-chloroimidazo[1,5-a]pyridin-1-yl)methyl)-1-((8-(1-(hydroxymethyl)cyclopropyl)imidazo[1,2-a]pyridin-2-yl)methyl)-1H-pyrazole-4-carboxamide], the EC50 is less than 1 nM.

For the compound `O=C(O)Cc1cc(C2CC2)cn2cc(Cn3cc(C(=O)NCc4ncn5ccc(Cl)cc45)cn3)nc12` [Example I-86, 2-(2-((4-(((7-chloroimidazo[1,5-a]pyridin-1-yl)methyl)carbamoyl)-1H-pyrazol-1-yl)methyl)-6-cyclopropylimidazo[1,2-a]pyridin-8-yl)acetic acid], the EC50 was less than 1 nM.

In the case of `O=C(NCc1ncn2ccc(Cl)cc12)c1cnn(Cc2cn3cc(C4CC4)cc(C(F)(F)F)c3n2)c1` [Example I-143, N-((7-chloroimidazo[1,5-a]pyridin-1-yl)methyl)-1-((6-cyclopropyl-8-(trifluoromethyl)imidazo[1,2-a]pyridin-2-yl)methyl)-1H-pyrazole-4-carboxamide], the EC50 is less than 1 nM.

On to `O=C(NCc1ncn2ccc(Br)cc12)c1cnn(Cc2cn3cc(C4CC4)c(F)cc3n2)c1` [Example I-20, N-((7-bromoimidazo[1,5-a]pyridin-1-yl)methyl)-1-((6-cyclopropyl-7-fluoroimidazo[1,2-a]pyridin-2-yl)methyl)-1H-pyrazole-4-carboxamide], for which the EC50 fell in the range of 1 to 10 nM.

On to `O=C(NCc1ncn2ccc(Cl)c(F)c12)c1cn(Cc2nc3cc(C4CC4)cc(Cl)n3n2)nn1` [Example I-255, 1-((5-chloro-7-cyclopropyl-[1,2,4]triazolo[1,5-a]pyridin-2-yl)methyl)-N-((7-chloro-8-fluoroimidazo[1,5-a]pyridin-1-yl)methyl)-1H-1,2,3-triazole-4-carboxamide], for which the EC50 was less than 1 nM.

`O=C(NCc1ncn2ccc(Cl)cc12)c1nnc(Cc2cn3cc(C4CC4)ccc3n2)o1` [Example I-51, N-((7-chloroimidazo[1,5-a]pyridin-1-yl)methyl)-5-((6-cyclopropylimidazo[1,2-a]pyridin-2-yl)methyl)-1,3,4-oxadiazole-2-carboxamide]: the EC50 was less than 1 nM.

On to `CC(c1cn2cc(C3CC3)ccc2n1)n1cc(C(=O)NCc2ncn3ccc(Cl)c(F)c23)nn1` (centres unmarked) [Example I-198, N-((7-chloro-8-fluoroimidazo[1,5-a]pyridin-1-yl)methyl)-1-(1-(6-cyclopropylimidazo[1,2-a]pyridin-2-yl)ethyl)-1H-1,2,3-triazole-4-carboxamide], for which the EC50 is less than 1 nM.

With `O=C(NCc1ncn2ccc(Cl)cc12)c1cnn(Cc2cn3ccccc3n2)c1` [Example I-69, N-((7-chloroimidazo[1,5-a]pyridin-1-yl)methyl)-1-(imidazo[1,2-a]pyridin-2-ylmethyl)-1H-pyrazole-4-carboxamide], the EC50 was in the range of 100 to 2000 nM.

On to `CCOC(=O)C(C)(C)C(O)c1cc(C2CC2)cn2cc(Cn3cc(C(=O)NCc4ncn5ccc(Cl)c(F)c45)nn3)nc12` (centres unmarked) [Example I-241a, ethyl 3-(2-((4-(((7-chloro-8-fluoroimidazo[1,5-a]pyridin-1-yl)methyl)carbamoyl)-1H-1,2,3-triazol-1-yl)methyl)-6-cyclopropylimidazo[1,2-a]pyridin-8-yl)-3-hydroxy-2,2-dimethylpropanoate], for which the 50% effective concentration (EC50) was less than 1 nM.

Regarding `CCOc1c(Cl)ccn2cnc(CNC(=O)c3cn(Cc4cn5cc(C6CC6)cc(CC6(C(=O)O)CCCC6)c5n4)nn3)c12` [Example I-221c, 1-((2-((4-(((7-chloro-8-ethoxyimidazo[1,5-a]pyridin-1-yl)methyl)carbamoyl)-1H-1,2,3-triazol-1-yl)methyl)-6-cyclopropylimidazo[1,2-a]pyridin-8-yl)methyl)cyclopentane-1-carboxylic acid], the EC50 fell in the range of 10 to 100 nM.

As to `O=C(NCc1ncn2ccc(Cl)c(F)c12)c1cn(Cc2cc3ccc(C4CC4)cc3s2)nn1` [Example I-229, N-((7-chloro-8-fluoroimidazo[1,5-a]pyridin-1-yl)methyl)-1-((6-cyclopropylbenzo[b]thiophen-2-yl)methyl)-1H-1,2,3-triazole-4-carboxamide], the EC50 lay in the range of 10 to 100 nM.

In the case of `O=C(NCc1ncn2ccc(Cl)c(F)c12)c1cn(Cc2cn3cc(C4CC4)cc(C(F)F)c3n2)nn1` [Example I-192, N-((7-chloro-8-fluoroimidazo[1,5-a]pyridin-1-yl)methyl)-1-((6-cyclopropyl-8-(difluoromethyl)imidazo[1,2-a]pyridin-2-yl)methyl)-1H-1,2,3-triazole-4-carboxamide], the EC50 is less than 1 nM.

As to `NC(=O)c1cc(Cn2cc(C(=O)NCc3ncn4ccc(Cl)c(F)c34)nn2)cc2cc(C3CC3)cnc12` [Example I-275, 6-((4-(((7-chloro-8-fluoroimidazo[1,5-a]pyridin-1-yl)methyl)carbamoyl)-1H-1,2,3-triazol-1-yl)methyl)-3-cyclopropylquinoline-8-carboxamide], the half-maximal effective concentration (EC50) lay in the range of 10 to 100 nM.

For the compound `O=C(NCc1ncn2ccc(Cl)cc12)c1cnn(Cc2cn3cc(C4CC4)cnc3n2)c1` [Example I-129, N-((7-chloroimidazo[1,5-a]pyridin-1-yl)methyl)-1-((6-cyclopropylimidazo[1,2-a]pyrimidin-2-yl)methyl)-1H-pyrazole-4-carboxamide], the EC50 was less than 1 nM.

For the compound `O=C(NCc1ncn2ccc(Br)cc12)c1cnn(Cc2cn3nc(C4CC4)ccc3n2)c1` [Example I-68, N-((7-bromoimidazo[1,5-a]pyridin-1-yl)methyl)-1-((6-cyclopropylimidazo[1,2-b]pyridazin-2-yl)methyl)-1H-pyrazole-4-carboxamide], the EC50 was less than 1 nM.

`O=C(NCc1ncn2ccc(Cl)cc12)c1cc(Cc2cn3cc(C4CC4)ccc3n2)on1` [Example I-176, N-((7-chloroimidazo[1,5-a]pyridin-1-yl)methyl)-5-((6-cyclopropylimidazo[1,2-a]pyridin-2-yl)methyl)isoxazole-3-carboxamide]: the EC50 is 1 to 10 nM.

Turning to `O=C(NCc1ncn2ccc(Cl)c(F)c12)c1cnn(Cc2cn3cc(C4CC4)ccc3n2)c1` [Example I-147, N-((7-chloro-8-fluoroimidazo[1,5-a]pyridin-1-yl)methyl)-1-((6-cyclopropylimidazo[1,2-a]pyridin-2-yl)methyl)-1H-pyrazole-4-carboxamide], the EC50 is less than 1 nM.

Regarding `O=C(NCCc1ncn2ccc(Cl)cc12)c1cnn(Cc2cn3cc(C4CC4)ccc3n2)c1` [Example I-94, N-(2-(7-chloroimidazo[1,5-a]pyridin-1-yl)ethyl)-1-((6-cyclopropylimidazo[1,2-a]pyridin-2-yl)methyl)-1H-pyrazole-4-carboxamide], the EC50 was in the range of 10 to 100 nM.

In the case of `O=C(NCc1ncn2ccc(Cl)c(F)c12)c1coc(Cc2cn3cc(C4CC4)ccc3n2)n1` [Example I-196, N-((7-chloro-8-fluoroimidazo[1,5-a]pyridin-1-yl)methyl)-2-((6-cyclopropylimidazo[1,2-a]pyridin-2-yl)methyl)oxazole-4-carboxamide], the EC50 was in the range of 1 to 10 nM.
